Experimental data taken from US20170197937A1, “NEW CRYSTAL FORM OF PANTOPRAZOLE SODIUM COMPOUND AND PREPARATION METHOD THEREFOR” (priority 2015, published 2017).
Where a name gives a salt, the structure may show the parent alone.

Columns and labels:
in vivo = settings: both, ICR, mouse, iv
Description: (§2) The median lethal dose method was taken for the acute toxicity test in mice. 50 ICR mice met experimental requirements were selected and randomly divided into 5 dose groups by weight, 10 animals each group with males and females half and half. […] Toxic reactions were observed during administration and after administration in mice.

Wistar rats = assay: long-term toxicity test in rats (13 weeks)
Description: (§1) 15 Beagle dogs were used for acute toxicity test, and given different doses of Pantoprazole Sodium of 44, 67, 100, 150 and 225 mg/kg. 3 animals belongs to each group and toxic reactions were observed after administration in each group. […] The Pantoprazole Sodium was divided into 5, 3 and […] groups by high, medium and low doses. The test period is 13 weeks. 80 healthy Wistar rats with males and females half and half were randomly divided into four groups, and were gavaged once a day regularly, drug withdrawal 2 weeks after administration 13 weeks, and then taken conventional toxicology observations and index detection.

ICR mice = settings: intravenous injection
Description: as §2

[1] = thermal stability test at 60° C. and 90% relative humidity; type: physicochemical; settings: for change of polymorph, purity and appearance: 15 days at 60° C. and 90% relative humidity, sodium salt
Description: The feature of the crystalline form M of Pantoprazole Sodium compound provided in the present invention is free of any crystalline solvents, and the melting point of the novel crystalline form is 192±2° C., which is higher than those of traditional crystalline forms. […] The product of the novel crystalline form has higher bulk density and fluidity with an appearance of stubby rod. The crystalline product especially has greater advantages in the preparation of formulations of Pantoprazole Sodium tablets, powder and subsequent other forms of such processes, due to the increased stability, fluidity and bulk density. At the same time, the product has better qualities in the process of filtering, washing, drying, packaging and storage due to the improvement of the properties described above.
1 g of dried solid Pantoprazole Sodium was added to 20 mL of n-butanol and n-pentanol (1:1, in volume) to form a suspension, and then 0.005 g BHA was added to the suspension under stirring, the suspension was heated to […] to make all the solid dissolved; and 60 mL of cyclohexane was dropwise added to the solution at a speed of 0.12 ml/min under constant temperature to obtain a suspension; meanwhile, a ultrasonic wave with a frequency of 20 KHz, a power of 50 W was applied, followed by cooling the solution down to 0° C. at a rate of 0.2° C./min, continuing to stir for 1 h, vacuum filtrating the crystal slurry, and the residue was dried at 50° C. and under normal pressure for 48 h to constant weight, to obtain crystalline form M of Pantoprazole Sodium product. XRD pattern of the novel crystalline form M was shown in FIG. 1, comprising characteristic peaks (expressed in degrees 2θ) at 5.62, 11.62, 12.16, 13.80, 17.18, 18.80, 21.72, 23.44, 25.16 and 26.88. DSC thermogram of the novel crystalline form M was shown in FIG. 2, comprising an endothermic peak at 192.61° C. […] The product of the novel crystalline form M had higher bulk density and fluidity with an appearance of stubby rod, as shown in FIG. 3.

[2] = acute toxicity test in Beagle dogs; type: in vivo; settings: dog, in vivo, doses 44-225 mg/kg
Description: as §1

Beagle dogs = assay: acute toxicity test in Beagle dogs; type: in vivo; settings: at the dose of 150 mg/kg
Description: as §1

[3] = storage stability at normal temperature and air humidity; type: physicochemical; settings: 100 days stored at normal temperature and air humidity
Description: XRD pattern of the novel crystalline form M was shown in FIG. 1, comprising characteristic peaks (expressed in degrees 2θ) at 5.62, 11.62, 12.16, 13.80, 17.18, 18.80, 21.72, 23.44, 25.16 and 26.88. DSC thermogram of the novel crystalline form M was shown in FIG. 2, comprising an endothermic peak at 192.61° C. […] The product of the novel crystalline form M had higher bulk density and fluidity with an appearance of stubby rod, as shown in FIG. 3.

[4] = toxic reaction tests (overall comparison); type: in vivo; settings: versus existing Pantoprazole Sodium
[5] = cited from earlier work

With `COc1ccnc(C[S+]([O-])c2nc3cc(OC(F)F)ccc3[n]2[Na+])c1OC` (stereo not drawn) [Example 1, 5-difluoromethoxy-2-[(3,4-dimethoxy-2-pyridinyl)methyl]sulfinyl-1H-benzimidazole sodium salt] as the compound, how does the LD50 (in vivo) read?
Its LD50 is 392 mg/kg.

And the “toxicology observations and indexes, medium- and low-dose groups” value (Wistar rats; Wistar rats, gavage once a day, 13 weeks, 3 and 1 g/kg)?
The value was “no significant difference occurred”.

What about the “dose of nontoxic response” value (Wistar rats; both, Wistar, rat, in vivo, 13 weeks) of the same compound?
The value was 3000 mg/kg.

And the histopathological examination (Wistar rats; rat, in vivo)?
Its histopathological examination is “liver cell degeneration occurred in one rat”.

And the “indexes after drug withdrawal” value (Wistar rats; rat, in vivo)?
Its value is “No obvious abnormality occurred”.

And the “toxic reactions during administration” value (ICR mice)?
Its value is “struggling, shortness of breath, limbs limp, difficulty breathing, and severe to death”.

And the “change of polymorph, purity and appearance” value [1]?
Its value is “did not make any change”.

What about the LD50 [2] of the same compound?
The LD50 was 70 mg/kg.

What about the toxic reactions (Beagle dogs) of the same compound?
The toxic reactions was “tremors, increased salivation, limp, vomiting, and death after 20 min”.

What about the “change of polymorph, purity and color” value [3] of the same compound?
Its value is “did not make any change”.

Which “change of polymorph, purity and appearance” value [1] does the source give for `COc1ccnc(C[S+]([O-])c2nc3cc(OC(F)F)ccc3[n]2[Na+])c1OC` (stereo not drawn) [Example 2, 5-difluoromethoxy-2-[(3,4-dimethoxy-2-pyridinyl)methyl]sulfinyl-1H-benzimidazole sodium salt] here?
The value was “did not make any change”.

And the “change of polymorph, purity and color” value [3]?
Its value is “did not make any change”.

Which results are given for `COc1ccnc(C[S+]([O-])c2nc3cc(OC(F)F)ccc3[n]2[Na+])c1OC` (stereo not drawn) [crystalline form M, 5-difluoromethoxy-2-[(3,4-dimethoxy-2-pyridinyl)methyl]sulfinyl-1H-benzimidazole sodium salt]?
toxicity compared with existing Pantoprazole Sodium [4]: decreased toxicity; change of polymorph, purity and appearance [1]: do not changed; thermal stability ([1]; conclusion from 15 days at 60° C. and 90% relative humidity): better thermal stability

With `COc1ccnc(C[S+]([O-])c2nc3cc(OC(F)F)ccc3[n]2[Na+])c1OC` (stereo not drawn) [Example 3, 5-difluoromethoxy-2-[(3,4-dimethoxy-2-pyridinyl)methyl]sulfinyl-1H-benzimidazole sodium salt] as the compound, how does the “change of polymorph, purity and appearance” value [1] read?
The value was “did not make any change”.

And the “change of polymorph, purity and color” value [3]?
Its value is “did not make any change”.

Which results are given for `COc1ccnc(C[S+]([O-])c2nc3cc(OC(F)F)ccc3[n]2[Na+])c1OC` (stereo not drawn) [Pantoprazole Sodium, 5-difluoromethoxy-2-[(3,4-dimethoxy-2-pyridinyl)methyl]sulfinyl-1H-benzimidazole sodium salt]?
solubility in trichloromethane or ethyl ether ([5]; trichloromethane or ethyl ether): almost insoluble; solubility in water or methanol ([5]; water or methanol): soluble

With `COc1ccnc(C[S+]([O-])c2nc3cc(OC(F)F)ccc3[n]2[Na+])c1OC` (stereo not drawn) [Example 4, 5-difluoromethoxy-2-[(3,4-dimethoxy-2-pyridinyl)methyl]sulfinyl-1H-benzimidazole sodium salt] as the compound, how does the “change of polymorph, purity and appearance” value [1] read?
Its value is “did not make any change”.

And the “change of polymorph, purity and color” value [3]?
The value was “did not make any change”.
